{
  "source": "patent US12398110B2",
  "about": "“Second generation inhibitors of mitochondrial permeability transition pore with improved plasma stability” (Oregon Health & Science University, priority 2019, dated 2025)",
  "key": {"[1]": {"system": "col6a1 zebrafish morphants", "test": "Survival of col6a1 zebrafish morphants", "type": "in vivo", "excerpt": "In FIG. 6D, the left panel represents data from embryos injected with a scrambled morpholino (scrd_MO, open squares), Exon 9 col6a1 morpholino (col6a1_MO, closed squares) and col6a1_MO embryos treated with TR001 at 0.1 μm (open circles), 1.0 μm (open triangles), 10 μm (open diamonds). Right panel represents data from embryos injected with a scrambled morpholino (scrd_MO, open squares), Exon 9 col6a1 morpholino (col6a1_MO, closed squares) and col6a1_MO embryos treated with 63 at […] (closed circles), 1.0 μm (closed triangles), 10 μm (closed diamonds). Embryos were treated with oligomycin, FCCP, rotenone (R) and antimycin A (A) as indicated. Results are presented as mean±SEM. Both graphs report data from 5 independent experiments with n=20 for each treatment. Error bars are reported as SEM. FIG. 6E, Survival of DMSO-treated zebrafish injected with the scrambled morpholino (open squares), DMSO-treated col6a1 morphants (closed squares) and col6a1 morphants treated with TR001 (0.1 μm, open triangles; 1.0 μm, open circles; 10 μm, open diamonds) or 63 (0.1 μm, closed triangles; 1.0 μm, closed circles; 10 μm, closed diamonds) were recorded for 30 days. Treatment started at 21 hpf and repeated at 4 dpf (arrows). Data report the percentage of surviving fish and are mean±SEM from 3 independent experiments (n=15 for each condition in each set).\nFinally, fish survival was also assessed. Fifty percent of col6a1 morphant embryos treated with 0.1 μm of TR001 survived 7 days longer than col6a1 morphants treated with DMSO (p<0.0001 from 3 to 12 dpf), and 20% were still alive at 30 dpf (i.e., after 29 days of treatment) (FIG. 6E).\n(§1) Morpholino antisense injection and treatment. Knock-down of col6a1 gene expression was obtained with a previously published morpholino ^[25] with sequence GAGAGCGGAAGACGAACCTTCATTC (SEQ ID NO: 2; GeneTools, Inc.). A control morpholino with no sequence homology in the zebrafish genome was used in parallel (CCTCTTACCTCAGTTACAATTTATA; SEQ ID NO: 3). Zebrafish eggs from wild-type matings were injected at the 1-2 cell stage with approximately 10 nL of 0.1 mm morpholino solution (corresponding to 4 ng of morpholino) using a WPI pneumatic PicoPump PV820 injector (World Precision Instruments, Inc.). Zebrafish embryos were dechorionated at 20 hours post fertilization (hpf) and treated at 21 hpf with increasing doses (0.1, 1 and 10 μm) of both TR001 and 63 compounds dissolved in fish water with 1% DMSO (vehicle).\nSurvival. Zebrafish survival was monitored every 3 days for 30 days. Drug treatment with both TR001 and 63 dissolved in fish water with 1% DMSO started at 21 hpf. After 3 days of treatment (4 days post fertilization, dpf), zebrafish were moved to a bigger tank (50 mL) with fresh compounds dissolved in 1% DMSO. As a control vehicle, fish water with 1% DMSO was used."}, "[2]": {"system": "col6a1 zebrafish morphants", "test": "Touch-evoked escape response in col6a1 zebrafish morphants", "type": "in vivo", "conditions": "48 hpf", "method": "(§2) Zebrafish embryos were injected with col6a1 morpholino at the 1-cell stage, dechorionated at 20 hpf and treated at 21 hpf with 0.1, 1 or 10 μm of either TR001 or 63. DMSO-treated embryos injected with a scrambled morpholino were used as a control. […] It should be noted that in these protocols, embryos were exposed to drugs for a longer period of time than in the spontaneous coiling experiments. This difference may help to explain why TR001 was as effective at 0.1 μm as it was at 1 and 10 μm.\nas §1\nMotor activity. The number of spontaneous coiling events performed in 15 seconds by single zebrafish embryos was recorded at 24 hpf by light microscopy. Touch-evoked escape responses were recorded at 48 hpf by observing the ability of zebrafish embryos to escape after a tail-touch with a little tip. Embryos were subdivided in 4 groups according to the observed phenotype: paralyzed embryos, score 0; underdeveloped embryos showing only coiling events, score 1; embryos showing lower motility, score 2; normal embryos, score 3."}, "[3]": {"test": "Plasma stability determination in mouse plasma", "type": "in vitro ADME", "conditions": "mouse, plasma, read-out: half-life (t1/2) in plasma", "method": "Plasma stability determination. The degradation of TR001 in the presence of mouse plasma (from Innovative Research) was used to predict the plasma stability of the compound to esterase catalyzed hydrolysis. A positive control for plasma cholinesterase, propantheline bromide, was included in all assays. Briefly, murine plasma was incubated with 1 μm TR001. Aliquots were removed at t=0, 5, 15, 30, and 60 and 120 min and quenched with acetonitrile containing structurally related compound (TR073) as the internal standard. The amount of TR001 remaining in the supernatant was assessed by LC-MS/MS in multiple reaction monitoring mode (MRM) using a 4000 QTRAP (SCIEX) with electrospray ionization source. The instrument was operated in negative mode with source parameters: source voltage […], GS1 50, GS2 50, CUR 30, TEM 650 and CAD gas MED. Optimal MRM transitions were obtained by direct infusion of the pure compound into the source. The mass spectrometer was interfaced to a Shimadzu (Columbia, MD) SIL-20AC XR auto-sampler maintained at 35° C. followed by 2 LC-20AD XR LC pumps. The internal standard and compound of interest were resolved using a Gemini-NX C18 50×2.1 mm column (Phenomenex) with 0.1% formic acid (solvent A) and 0.1% formic acid in acetonitrile (solvent B). The injection volume was 10 μL at a flow rate of 0.75 mL/min. The gradient elution was 10% B to 95% B over 5 min and held at 95% for 1 min before returning to start conditions. The column was maintained at 40° C. using a Shimadzu CTO-20AC column oven. Data were acquired using Analyst 1.6.2 and analyzed using Multiquant 3.0.1 software. The first-order rate constant for substrate depletion was determined from a linear least squares fit of the natural log of the percent parent compound remaining versus time. The rate constant was used to calculate the plasma half-life as an indicator of stability."}, "[4]": {"system": "col6a1 zebrafish morphants", "test": "Birefringence (muscle structure) in col6a1 zebrafish morphants", "type": "in vivo", "conditions": "48 hpf", "method": "Muscle structure was assessed by birefringence analysis at 48 hpf, a time when muscle tissue is fully developed and organized muscle fibers start to show anisotropic features. A high percentage of severe birefringence abnormality (>75%, FIG. 6C) was detected in col6a1 morphants, indicating major defects of muscle fiber development and organization.\nas §1, with “Zebrafish embryos were dechorionated at 20 hours post fertilization (hpf) and treated at 21 hpf with increasing doses (0.1, 1 and 10 μm) of both TR001 and 63 compounds dissolved in fish water with 1% DMSO (vehicle).” left out\nBirefringence. Muscle structure was monitored by birefringence analysis, taking advantage of muscle anisotropy, which is the ability of muscle fibers to refract polarized light. […] With this set-up, light refracted by muscle fibers (due to the pseudo-crystalline array of sarcomeres) is transmitted and analyzed. Integrated area of birefringence was calculated using ImageJ software. […]"}, "[5]": {"system": "col6a1 zebrafish morphants", "test": "Spontaneous coiling events in col6a1 zebrafish morphants", "type": "in vivo", "conditions": "24 hpf, 3 hours of treatment, 0.1, 1 or 10 μm", "method": "as §2\nMorpholino antisense injection and treatment. Knock-down of col6a1 gene expression was obtained with a previously published morpholino ^[25] with sequence GAGAGCGGAAGACGAACCTTCATTC (SEQ ID NO: 2; GeneTools, Inc.). A control morpholino with no sequence homology in the zebrafish genome was used in parallel (CCTCTTACCTCAGTTACAATTTATA; SEQ ID NO: 3). […]\nMotor activity. The number of spontaneous coiling events performed in 15 seconds by single zebrafish embryos was recorded at 24 hpf by light microscopy. Touch-evoked escape responses were recorded at 48 hpf by observing the ability of zebrafish embryos to escape after a tail-touch with a little tip. […]"}},
  "data": [
    {"smiles": "Cc1ccc(Cl)cc1NC(=O)c1cc(-c2ccc(F)c(O)c2)on1", "note": "[Compound 63, reference compound]", "values": [
      {"measurement": "survival (in words)", "setting": "[1]; 1 μm", "result": "ineffected"},
      {"measurement": "survival (in words)", "setting": "[1]; 10 μm", "result": "ineffected"},
      {"measurement": "survival (in words)", "setting": "[1]; lowest concentration tested (0.1 μm)", "result": "decreased activity compared to TR001"},
      {"measurement": "touch-evoked escape response (motility)", "setting": "[2]; 0.1-1.0 μM", "result": "minimal recovery"},
      {"measurement": "touch-evoked escape response (motility)", "setting": "[2]; 10 μm", "result": "no longer seen"},
      {"measurement": "half-life at 1 µM", "setting": "[3]", "result": 21, "unit": "min"},
      {"measurement": "muscle structure by birefringence", "setting": "[4]", "result": "minimal effect"},
      {"measurement": "spontaneous coiling events", "setting": "[5]", "result": "no effect"}
    ]}
  ]
}
